In PMC10653547, “Synergistic effect of two antimicrobial peptides, BP203 and MAP-0403 J-2 with conventional antibiotics against colistin-resistant Escherichia coli and Klebsiella pneumoniae clinical isolates” (PLOS ONE, 2023):
Converted amounts (≈) assume the structure as drawn. “Also recorded” adds a separate entry of the source. Like-named read-outs stand apart in the source and are kept apart here. No end group written: not given here.

Legend:
E. coli ATCC 25922 = test system: E. coli ATCC 25922
Description: (§1) The MICs of BP203 and MAP-0403 J-2 against clinically colistin-resistant E. coli and K. pneumoniae isolates were determined using the broth microdilution method, according to CLSI recommendations. Briefly, the peptides were subjected to serial dilution in cation-adjusted Mueller-Hinton broth (CAMHB) and added to a 96-well microtiter plate (Wuxi NEST Biotechnology, Wuxi, China). Subsequently, bacterial suspensions from freshly mid-log phase cultures were diluted to 10^6 CFU/mL with CAMHB, and introduced to each well containing the peptides.
(§2) The antibacterial activity of BP203 and MAP-0403 J-2 was evaluated concerning their response to temperature, pH, serum, and salt ions using the MIC assay, following the previously mentioned procedure. The MIC values of peptides were determined against E. coli ATCC29522 and K. pneumoniae ATCC BAA-1706. […] For the pH stability assay, both peptides were incubated in buffers with different pH values (100 mM buffers: glycine-HCl buffer (pH 2.0), sodium acetate buffer (pH 4.0), sodium phosphate buffer (pH 6.0), Tris-HCl buffer (pH 8.0), and glycine-NaOH buffer (pH 10.0)) for 1 h at 37°C. […] For serum stability assay, both peptides were exposed to 25% and 50% fetal bovine serum (FBS) for 1 h at 37°C, followed by a heat activation step for 30 min at 60°C. Afterward, the peptide solutions were serially diluted and MIC was subsequently determined. […] The serial dilutions of peptides were incubated with tested strains for MIC testing. The MICs were observed after 20–24 h of incubation at 37°C.

[1] = test system: K. pneumoniae ATCC BAA-1706
Description: as §1, §2

sheep red blood cells = assay: Hemolytic activity assay; assay type: cell-based; details: at concentrations as high as 200 μg/mL
Description: Sheep erythrocytes were employed to assess the hemolytic activity of BP203 and MAP-0403 J-2, following previously described with some modifications. Briefly, defibrinated sheep red blood cells (sRBCs) were centrifuged at 1,000× g, 4°C for 10 min. The packed sRBCs underwent three times washes with phosphate buffer saline (PBS), at pH 7.4, and were subsequently suspended in PBS to achieve a concentration of 4% (v/v). […] Following an incubation period of 1 h at 37°C, the mixtures were centrifuged at room temperature, 1,000× g for 10 min. The supernatants were collected and transferred to a 96-well microplate. Next, absorbance measurement was taken at 540 nm using a microplate reader (Tecan Group, Zurich, Switzerland). Blank, negative and positive controls were established using sRBCs incubated with PBS alone, BSA solution, and 0.1% Triton X-100, respectively. […] The percentage of hemolytic activity was calculated with the following equation: Hemolysis (%) = {(Sample absorbance—PBS absorbance)/(0.1% Triton X-100 absorbance—PBS absorbance)} × 100.

[2] = test system: K. pneumoniae ATCC BAA-1706 and colistin-resistant K. pneumoniae clinical isolates; details: for MIC against colistin-resistant K. pneumoniae clinical isolates: range over ten isolates
Description: as §1

[3] = test system: E. coli ATCC 25922 and colistin-resistant E. coli clinical isolates; details: for MICs against colistin-resistant E. coli clinical isolates: range over ten isolates
Description: as §1

## CC[C@H](C)[C@H](NC(=O)[C@H](CCCCN)NC(=O)[C@H](CCCCN)NC(=O)[C@H](Cc1ccccc1)NC(=O)[C@H](CC(C)C)NC(=O)[C@H](CCCCN)NC(=O)[C@@H](N)CCCCN)C(=O)N[C@@H](CC(C)C)C(=O)N[C@@H](CCCNC(=N)N)C(=O)N[C@@H](Cc1ccc(O)cc1)C(=O)N[C@@H](CC(C)C)C(N)=O [BP203]
E. coli ATCC 25922; Control, 0
  MIC in the presence of physiological salts: 4 μg/mL
E. coli ATCC 25922; FeCl3 1 μM
  MIC in the presence of physiological salts: 4 μg/mL
E. coli ATCC 25922; FeCl3 4 μM
  MIC in the presence of physiological salts: 4 μg/mL
E. coli ATCC 25922; FeCl3 8 μM
  MIC in the presence of physiological salts: 4 μg/mL
E. coli ATCC 25922; MgCl2 0.5 mM
  MIC in the presence of physiological salts: 4 μg/mL
E. coli ATCC 25922; MgCl2 1 mM
  MIC in the presence of physiological salts: 4 μg/mL
E. coli ATCC 25922; MgCl2 2 mM
  MIC in the presence of physiological salts: 8 μg/mL
E. coli ATCC 25922; NaCl 100 mM
  MIC in the presence of physiological salts: 8 μg/mL
E. coli ATCC 25922; NaCl 150 mM
  MIC in the presence of physiological salts: 16 μg/mL
E. coli ATCC 25922; NaCl 200 mM
  MIC in the presence of physiological salts: 16 μg/mL
[1]; Control, 0
  MIC in the presence of physiological salts: 4 μg/mL
[1]; FeCl3 1 μM
  MIC in the presence of physiological salts: 4 μg/mL
[1]; FeCl3 4 μM
  MIC in the presence of physiological salts: 8 μg/mL
[1]; FeCl3 8 μM
  MIC in the presence of physiological salts: 8 μg/mL
[1]; MgCl2 0.5 mM
  MIC in the presence of physiological salts: 4 μg/mL
[1]; MgCl2 1 mM
  MIC in the presence of physiological salts: 8 μg/mL
[1]; MgCl2 2 mM
  MIC in the presence of physiological salts: 8 μg/mL
[1]; NaCl 100 mM
  MIC in the presence of physiological salts: 8 μg/mL
[1]; NaCl 150 mM
  MIC in the presence of physiological salts: 16 μg/mL
[1]; NaCl 200 mM
  MIC in the presence of physiological salts: 16 μg/mL
Sheep red blood cells
  Hemolysis (in words): negligible hemolysis; also recorded: no hemolytic activity
[2]
  MIC for the majority of (most) colistin-resistant K. pneumoniae isolates: > 128 µg/mL
  MIC against colistin-resistant K. pneumoniae clinical isolates: 16 to 512 µg/mL
[2]; K. pneumoniae ATCC BAA-1706
  MBC: 4 µg/mL (≈ 2.76 µM)
  MIC: 4 µg/mL (≈ 2.76 µM)
[2]; KP-01
  MBC: 16 µg/mL (≈ 11 µM)
  MIC: 16 µg/mL (≈ 11 µM)
[2]; KP-02
  MBC: 256 µg/mL (≈ 177 µM)
  MIC: 256 µg/mL (≈ 177 µM)
[2]; KP-03
  MBC: 128 µg/mL (≈ 88.3 µM)
  MIC: 128 µg/mL (≈ 88.3 µM)
[2]; KP-04
  MBC: 512 µg/mL (≈ 353 µM)
  MIC: 512 µg/mL (≈ 353 µM)
[2]; KP-05
  MBC: 32 µg/mL (≈ 22.1 µM)
  MIC: 32 µg/mL (≈ 22.1 µM)
[2]; KP-06
  MBC: 256 µg/mL (≈ 177 µM)
  MIC: 256 µg/mL (≈ 177 µM)
[2]; KP-07
  MBC: 128 µg/mL (≈ 88.3 µM)
  MIC: 128 µg/mL (≈ 88.3 µM)
[2]; KP-08
  MBC: 256 µg/mL (≈ 177 µM)
  MIC: 256 µg/mL (≈ 177 µM)
[2]; KP-09
  MBC: 512 µg/mL (≈ 353 µM)
  MIC: 512 µg/mL (≈ 353 µM)
[2]; KP-10
  MBC: 512 µg/mL (≈ 353 µM)
  MIC: 512 µg/mL (≈ 353 µM)
[3]; E. coli ATCC 25922
  MBC: 4 µg/mL (≈ 2.76 µM)
  MIC: 4 µg/mL (≈ 2.76 µM)
[3]; EC-01
  MBC: 2 µg/mL (≈ 1.38 µM)
  MIC: 2 µg/mL (≈ 1.38 µM)
[3]; EC-02
  MBC: 8 µg/mL (≈ 5.52 µM)
  MIC: 8 µg/mL (≈ 5.52 µM)
[3]; EC-03
  MBC: 2 µg/mL (≈ 1.38 µM)
  MIC: 2 µg/mL (≈ 1.38 µM)
[3]; EC-04
  MBC: 4 µg/mL (≈ 2.76 µM)
  MIC: 2 µg/mL (≈ 1.38 µM)
[3]; EC-05
  MBC: 8 µg/mL (≈ 5.52 µM)
  MIC: 8 µg/mL (≈ 5.52 µM)
[3]; EC-06
  MBC: 2 µg/mL (≈ 1.38 µM)
  MIC: 2 µg/mL (≈ 1.38 µM)
[3]; EC-07
  MBC: 8 µg/mL (≈ 5.52 µM)
  MIC: 8 µg/mL (≈ 5.52 µM)
[3]; EC-08
  MBC: 16 µg/mL (≈ 11 µM)
  MIC: 16 µg/mL (≈ 11 µM)
[3]; EC-09
  MBC: 2 µg/mL (≈ 1.38 µM)
  MIC: 2 µg/mL (≈ 1.38 µM)
[3]; EC-10
  MBC: 8 µg/mL (≈ 5.52 µM)
  MIC: 8 µg/mL (≈ 5.52 µM)
[3]
  MICs against colistin-resistant E. coli clinical isolates: 2 to 16 µg/mL

## KWLRRPWRRWR-NH2 [MAP-0403 J-2]
E. coli ATCC 25922; Control, 0
  MIC in the presence of physiological salts: 16 μg/mL
E. coli ATCC 25922; FeCl3 1 μM
  MIC in the presence of physiological salts: 16 μg/mL
E. coli ATCC 25922; FeCl3 4 μM
  MIC in the presence of physiological salts: 16 μg/mL
E. coli ATCC 25922; FeCl3 8 μM
  MIC in the presence of physiological salts: 16 μg/mL
E. coli ATCC 25922; MgCl2 0.5 mM
  MIC in the presence of physiological salts: 16 μg/mL
E. coli ATCC 25922; MgCl2 1 mM
  MIC in the presence of physiological salts: 16 μg/mL
E. coli ATCC 25922; MgCl2 2 mM
  MIC in the presence of physiological salts: 16 μg/mL
E. coli ATCC 25922; NaCl 100 mM
  MIC in the presence of physiological salts: 32 μg/mL
E. coli ATCC 25922; NaCl 150 mM
  MIC in the presence of physiological salts: 64 μg/mL
E. coli ATCC 25922; NaCl 200 mM
  MIC in the presence of physiological salts: 64 μg/mL
[1]; Control, 0
  MIC in the presence of physiological salts: 16 μg/mL
[1]; FeCl3 1 μM
  MIC in the presence of physiological salts: 16 μg/mL
[1]; FeCl3 4 μM
  MIC in the presence of physiological salts: 16 μg/mL
[1]; FeCl3 8 μM
  MIC in the presence of physiological salts: 32 μg/mL
[1]; MgCl2 0.5 mM
  MIC in the presence of physiological salts: 16 μg/mL
[1]; MgCl2 1 mM
  MIC in the presence of physiological salts: 16 μg/mL
[1]; MgCl2 2 mM
  MIC in the presence of physiological salts: 16 μg/mL
[1]; NaCl 100 mM
  MIC in the presence of physiological salts: 32 μg/mL
[1]; NaCl 150 mM
  MIC in the presence of physiological salts: 64 μg/mL
[1]; NaCl 200 mM
  MIC in the presence of physiological salts: 64 μg/mL
Sheep red blood cells
  Hemolysis (in words): negligible hemolysis; also recorded: no hemolytic activity
[2]; K. pneumoniae ATCC BAA-1706
  MBC: 16 µg/mL
  MIC: 16 µg/mL
[2]; KP-01
  MBC: >512 µg/mL
  MIC: >512 µg/mL
[2]; KP-02
  MBC: 256 µg/mL
  MIC: 128 µg/mL
[2]; KP-03
  MBC: >512 µg/mL
  MIC: >512 µg/mL
[2]; KP-04
  MBC: >512 µg/mL
  MIC: >512 µg/mL
[2]; KP-05
  MBC: 512 µg/mL
  MIC: 256 µg/mL
[2]; KP-06
  MBC: >512 µg/mL
  MIC: >512 µg/mL
[2]; KP-07
  MBC: >512 µg/mL
  MIC: >512 µg/mL
[2]; KP-08
  MBC: >512 µg/mL
  MIC: >512 µg/mL
[2]; KP-09
  MBC: >512 µg/mL
  MIC: >512 µg/mL
[2]; KP-10
  MBC: >512 µg/mL
  MIC: >512 µg/mL
[2]
  MIC against colistin-resistant K. pneumoniae clinical isolates: ≥ 512 µg/mL
[3]; E. coli ATCC 25922
  MBC: 16 µg/mL
  MIC: 16 µg/mL
[3]; EC-01
  MBC: 32 µg/mL
  MIC: 16 µg/mL
[3]; EC-02
  MBC: 32 µg/mL
  MIC: 32 µg/mL
[3]; EC-03
  MBC: 16 µg/mL
  MIC: 8 µg/mL
[3]; EC-04
  MBC: 8 µg/mL
  MIC: 8 µg/mL
[3]; EC-05
  MBC: 64 µg/mL
  MIC: 32 µg/mL
[3]; EC-06
  MBC: 32 µg/mL
  MIC: 32 µg/mL
[3]; EC-07
  MBC: 32 µg/mL
  MIC: 32 µg/mL
[3]; EC-08
  MBC: 64 µg/mL
  MIC: 32 µg/mL
[3]; EC-09
  MBC: 32 µg/mL
  MIC: 8 µg/mL
[3]; EC-10
  MBC: 64 µg/mL
  MIC: 32 µg/mL
[3]
  MICs against colistin-resistant E. coli clinical isolates: 8 to 32 µg/mL
